Values after ≈ are worked out from the molar mass of the structure shown. Active and inactive are the calls of the source. The calls are words filed in the database; no cut-off is given here.
Tests used:
[1] = Cytotoxicity against human HT-29 cells assessed as reduction in cell viability measured after 48 hrs by resazurin dye-based fluorometric analysis; type: functional
[2] = Cytotoxicity against human HT-29 cells assessed as reduction in cell viability measured after 48 hrs by resazurin dye-based fluorometric analysis relative to control; type: functional
Aspergillus fumigatus [3] = assay: Antifungal activity against Aspergillus fumigatus isolate 2 measured after 48 hrs by broth dilution method; type: functional; details: isolate 2, 48 h
[4] = Antifungal activity against Trichophyton rubrum isolate 1 measured after 48 hrs by broth dilution method; type: functional
[5] = Antifungal activity against Trichophyton rubrum isolate 2 measured after 48 hrs by broth dilution method; type: functional
[6] = Antifungal activity against Trichophyton mentagrophytes isolate 1 measured after 48 hrs by broth dilution method; type: functional
[7] = Antifungal activity against Trichophyton mentagrophytes isolate 2 measured after 48 hrs by broth dilution method; type: functional
[8] = Antifungal activity against Epidermophyton floccosum isolate 1 measured after 48 hrs by broth dilution method; type: functional
[9] = Cytotoxicity against human PC3 cells assessed as reduction in cell viability measured after 48 hrs by resazurin dye-based fluorometric analysis relative to control; type: functional, PC-3; design: concentration or dose not given beside the values
[10] = Antiproliferative activity against human mitoxantrone-sensitive HL60 cells; type: functional, cell-based; details: HL-60
[11] = Antiproliferative activity against human mitoxantrone-resistant HL60/MX2 cells; type: functional, cell-based; details: HL-60
HL-60 = assay: Ratio of EC50 for human mitoxantrone-sensitive HL60 cells to EC50 for human mitoxantrone-resistant HL60/MX2 cells; type: functional
[12] = Antiproliferative activity against taxol-resistant human MES-SA/Dx5 cells expressing MDR1 mRNA and P-gp; type: functional, cell-based
MES-SA = assay: Ratio of EC50 for taxol-resistant human MES-SA/DX5 cells expressing MDR1 mRNA and P-gp to EC50 for taxol-sensitive human MES-SA cells; type: functional
Tubulin (Homo sapiens) [13] = target: T1, Tubulin (Homo sapiens) (UniProt P68371+Q9H4B7+P0DPH7+P68366+Q13509+Q71U36+P04350+Q3ZCM7+P07437+P68363+Q9BQE3+Q6PEY2+Q13885+Q9BVA1+Q9BUF5); assay: Induction of microtubule depolymerization in HUVEC at 1.5 to 5 uM by turbidity spectroscopic analysis; type: cell-based
Tubulin (Homo sapiens) [14] = target: T1, Tubulin (Homo sapiens); assay: Induction of microtubule depolymerization in HUVEC at 20 nM measured after 30 mins by DAPI-staining based immunofluorescence analysis; type: cell-based
Aspergillus fumigatus [15] = assay: Antifungal activity against Aspergillus fumigatus isolate 1 measured after 48 hrs by broth dilution method; type: functional; details: isolate 1, 48 h
[16] = Antifungal activity against Candida glabrata measured after 48 hrs by broth dilution method; type: functional; details: Nakaseomyces glabratus
Trichophyton rubrum = assay: Fungicidal activity against Trichophyton rubrum isolate 2 measured after 48 hrs by broth dilution method; type: functional; details: isolate 2, 48 h
[17] = tested on: Trichophyton mentagrophytes; assay: Fungicidal activity against Trichophyton mentagrophytes isolate 1 measured after 48 hrs by broth dilution method; type: functional; details: isolate 1, 48 h
[18] = Antifungal activity against Epidermophyton floccosum isolate 2 measured after 48 hrs by broth dilution method; type: functional

Row | SMILES | EC50 ([1]; Homo sapiens, HT-29, 48 h) [nM] | inhibition (INH) [2] | also measured
1 | C=CC(C)(C)c1[nH]cnc1/C=c1\[nH]c(=O)/c(=C/c2ccc(OC)cc2)[nH]c1=O | 6570 to 6730 | 63% | 
2 | COC1=CC(=O)C[C@@H](C)[C@]12Oc1c(Cl)c(OC)cc(OC)c1C2=O [GRISEOFULVIN] |  |  | MIC (Aspergillus fumigatus [3]): 0.5 µg/mL (≈ 1.42 µM); MIC [4]: 0.5 µg/mL (≈ 1.42 µM); MIC [5]: < 0.015 µg/mL; MIC [6]: 1 µg/mL (≈ 2.83 µM); MIC [7]: 2 µg/mL (≈ 5.67 µM); MIC [8]: 2 µg/mL (≈ 5.67 µM)
3 | COc1cccc(/C=c2\[nH]c(=O)/c(=C/c3nc[nH]c3C(C)(C)C)[nH]c2=O)c1N.O=C(O)C(F)(F)F |  | 87% | 
4 | CSc1ccccc1/C=c1\[nH]c(=O)/c(=C/c2nc[nH]c2C(C)(C)C)[nH]c1=O.O=C(O)C(F)(F)F |  | 87% | 
5 | Cc1[nH]cnc1/C=c1\[nH]c(=O)/c(=C/c2nc[nH]c2C(C)(C)C)[nH]c1=O.O=C(O)C(F)(F)F.O=C(O)C(F)(F)F | 2350 to 2790 | 84% | 
6 | Cc1cccc(/C=c2\[nH]c(=O)/c(=C/c3nc[nH]c3C(C)(C)C)[nH]c2=O)c1C.O=C(O)C(F)(F)F | 2.96 to 3 | 87% | 
7 | CC(C)(C)c1ccc(O)c(/C=c2\[nH]c(=O)/c(=C/c3nc[nH]c3C(C)(C)C)[nH]c2=O)c1.O=C(O)C(F)(F)F |  | 80% | 
8 | CC(C)(C)c1[nH]cnc1/C=c1\[nH]c(=O)/c(=C/c2cc(Cl)cc(Cl)c2)[nH]c1=O.O=C(O)C(F)(F)F |  | 87% | 
9 | CC(C)(C)c1[nH]cnc1/C=c1\[nH]c(=O)/c(=C/c2cccc3c2OCO3)[nH]c1=O.O=C(O)C(F)(F)F |  | 82% | EC50 ([1]; ht-29): 477 to 520 nM
10 | Cn1cccc1/C=c1\[nH]c(=O)/c(=C/c2nc[nH]c2C(C)(C)C)[nH]c1=O.O=C(O)C(F)(F)F | 105 to 117 | 88% | 
11 | CC(C)(C)c1[nH]cnc1/C=c1\[nH]c(=O)/c(=C/c2ccc(Br)o2)[nH]c1=O.O=C(O)C(F)(F)F |  | 87% | 
12 | COc1ccsc1/C=c1\[nH]c(=O)/c(=C/c2nc[nH]c2C(C)(C)C)[nH]c1=O.O=C(O)C(F)(F)F |  | 88% | 
13 | CC(C)(C)c1ocnc1/C=c1\[nH]c(=O)/c(=C/c2c3ccccc3cc3ccccc23)[nH]c1=O | > 6230 |  | 
14 | CC(C)(C)c1[nH]cnc1/C=c1\[nH]c(=O)/c(=C/c2ccc(C#N)cc2)[nH]c1=O.O=C(O)C(F)(F)F |  | 14% | 
15 | COc1cc(/C=c2\[nH]c(=O)/c(=C/c3nc[nH]c3C(C)(C)C)[nH]c2=O)ccc1F.O=C(O)C(F)(F)F |  | 85% | 
16 | CC(C)(C)c1[nH]cnc1/C=c1\[nH]c(=O)/c(=C/c2cc([N+](=O)[O-])ccc2Cl)[nH]c1=O | 51 to 53.4 | 86% | Activity [9]: 100%
17 | CC(C)(C)c1[nH]cnc1/C=c1\[nH]c(=O)/c(=C/c2sccc2B(O)O)[nH]c1=O.O=C(O)C(F)(F)F |  | 88% | 
18 | CC(C)(C)c1[nH]cnc1/C=c1\[nH]c(=O)/c(=C/c2ccc3c(c2)OCO3)[nH]c1=O | 82 to 87.3 | 84% | Activity [9]: 95%
19 | COc1cc(OC)c(/C=c2\[nH]c(=O)/c(=C/c3nc[nH]c3C(C)(C)C)[nH]c2=O)c(OC)c1.O=C(O)C(F)(F)F | > 2000 | 2% | 
20 | COc1ccc(O)c(/C=c2\[nH]c(=O)/c(=C/c3nc[nH]c3C(C)(C)C)[nH]c2=O)c1.O=C(O)C(F)(F)F | > 2000 | 25% | EC50 [10]: 32 nM; EC50 [11]: 31 nM; Ratio EC50 (HL-60): 1
21 | COc1cccc(C)c1/C=c1\[nH]c(=O)/c(=C/c2nc[nH]c2C(C)(C)C)[nH]c1=O | 517 |  | 
22 | CC(C)(C)c1[nH]cnc1/C=c1\[nH]c(=O)/c(=C/c2ccccc2N)[nH]c1=O.O=C(O)C(F)(F)F |  | 86% | 
23 | CCc1ccc(/C=c2\[nH]c(=O)/c(=C/c3nc[nH]c3C(C)(C)C)[nH]c2=O)o1.O=C(O)C(F)(F)F | 2420 | 86% | 
24 | COc1ccc(/C=c2\[nH]c(=O)/c(=C/c3nc[nH]c3C(C)(C)C)[nH]c2=O)cc1O.O=C(O)C(F)(F)F |  | 66% | 
25 | C=CC(C)(C)c1[nH]cnc1/C=C1\NC(=O)C(Cc2ccccc2)N=C1OC (centres undefined) | > 2000 | 13% | 
26 | CC(C)(C)c1[nH]cnc1/C=c1\[nH]c(=O)/c(=C/c2ccc(Cl)s2)[nH]c1=O | 165 to 184 |  | 

Row | SMILES | EC50 ([1]; Homo sapiens, HT-29, 48 h) [nM] | inhibition (INH) [2] | also measured
27 | CC(C)(C)c1[nH]cnc1/C=c1\[nH]c(=O)/c(=C/c2cccc3c2OCO3)[nH]c1=O |  |  | EC50 ([1]; ht-29): 52 nM
28 | CC(C)(C)c1[nH]cnc1/C=c1\[nH]c(=O)/c(=C/c2cc(Cl)ccc2[N+](=O)[O-])[nH]c1=O.O=C(O)C(F)(F)F | 99.7 to 110 | 86% | EC50 [10]: 28 nM; EC50 [11]: 19 nM; Ratio EC50 (HL-60): 0.7
29 | Cc1c(F)cccc1/C=c1\[nH]c(=O)/c(=C/c2nc[nH]c2C(C)(C)C)[nH]c1=O.O=C(O)C(F)(F)F |  | 86% | 
30 | CC(C)(C)c1ocnc1/C=c1\[nH]c(=O)/c(=C/c2cc3ccccc3s2)[nH]c1=O | > 2000 |  | 
31 | CC(C)(C)c1[nH]cnc1/C=c1\[nH]c(=O)/c(=C/c2cc(Br)ccc2O)[nH]c1=O.O=C(O)C(F)(F)F | > 2000 | 13% | 
32 | COc1ccc(/C=c2\[nH]c(=O)/c(=C/c3nc[nH]c3C(C)(C)C)[nH]c2=O)c(O)c1.O=C(O)C(F)(F)F | > 2000 | 8% | 
33 | CC(C)(C)c1ocnc1/C=c1\[nH]c(=O)/c(=C/c2c(F)ccc(F)c2F)[nH]c1=O |  |  | IC50 [12]: 27 nM; Ratio EC50 (MES-SA): 1.2; Ratio EC50 (HL-60): 1; Activity (Tubulin (Homo sapiens) [13]): Active; Activity (Tubulin (Homo sapiens) [14]): Active
34 | CCC(C)n1ncn(-c2ccc(N3CCN(c4ccc(OCC5COC(Cn6cncn6)(c6ccc(Cl)cc6Cl)O5)cc4)CC3)cc2)c1=O (centres undefined) [ITRACONAZOLE] |  |  | MIC (Aspergillus fumigatus [15]): 1 µg/mL (≈ 1.42 µM)
35 | CC(C)(C)c1[nH]cnc1/C=c1\[nH]c(=O)/c(=C/c2cccc(OC(F)(F)F)c2)[nH]c1=O.O=C(O)C(F)(F)F | 13 to 14.3 | 87% | 
36 | C=CC(C)(C)c1[nH]cnc1/C=c1\[nH]c(=O)/c(=C\c2ccc(OC)cc2)[nH]c1=O |  | 63% | 
37 | C=CC(C)(C)c1[nH]cnc1/C=C1\NC(=O)[C@H](Cc2ccccc2)NC1=O | 394 to 1600 | 87% | MIC [16]: > 70 µg/mL; MIC (Aspergillus fumigatus [15]): > 16 µg/mL; MIC (Aspergillus fumigatus [3]): > 16 µg/mL; MIC [4]: > 16 µg/mL; MIC [5]: 0.16 µg/mL (≈ 0.457 µM); MFC (Trichophyton rubrum): > 16 µg/mL; MIC [6]: 16 µg/mL (≈ 45.7 µM); MFC [17]: > 16 µg/mL; MIC [7]: > 16 µg/mL; MIC [8]: > 16 µg/mL; MIC [18]: > 16 µg/mL
38 | CC(C)(C)c1[nH]cnc1/C=c1\[nH]c(=O)/c(=C/c2cc(Cl)ccc2O)[nH]c1=O.O=C(O)C(F)(F)F | > 2000 | 37% | 
39 | Cc1ccc(C)c(/C=c2\[nH]c(=O)/c(=C/c3nc[nH]c3C(C)(C)C)[nH]c2=O)c1.O=C(O)C(F)(F)F |  | 87% | 
40 | COc1cccc(/C=c2\[nH]c(=O)/c(=C/c3nc[nH]c3C(C)(C)C)[nH]c2=O)c1[N+](=O)[O-].O=C(O)C(F)(F)F |  | 83% | 
41 | COc1ccc(F)c(/C=c2\[nH]c(=O)/c(=C/c3nc[nH]c3C(C)(C)C)[nH]c2=O)c1.O=C(O)C(F)(F)F | 19 to 20.3 | 88% | 
42 | C=CC(C)(C)c1[nH]cnc1/C=C1\N=C(OC)C(Cc2ccccc2)N=C1OC (centres undefined) | > 2000 | 4% | 
43 | Cc1ccc(/C=c2\[nH]c(=O)/c(=C/c3nc[nH]c3C(C)(C)C)[nH]c2=O)s1 | 80 to 85.2 | 85 - 97% | 
44 | Cc1ccsc1/C=c1\[nH]c(=O)/c(=C/c2nc[nH]c2C(C)(C)C)[nH]c1=O | 44 to 47 | 86% | Activity [9]: 81%
45 | COc1cccc2cc3c(=O)[nH]/c(=C\c4nc[nH]c4C(C)(C)C)c(=O)n3c12 | 6920 to 7040 | 58 - 100% | 
46 | CCc1ccc(/C=c2\[nH]c(=O)/c(=C/c3nc[nH]c3C(C)(C)C)[nH]c2=O)s1.O=C(O)C(F)(F)F |  | 87% | 
47 | COc1cc(/C=c2\[nH]c(=O)/c(=C/c3nc[nH]c3C(C)(C)C)[nH]c2=O)cc(OC)c1 | 42 to 45.4 | 87% | Activity [9]: 82%
48 | COc1cccc(/C=c2\[nH]c(=O)/c(=C/c3nc[nH]c3C(C)(C)C)[nH]c2=O)c1O | 5360 to 5870 | 79 - 86% | 
49 | CC(C)(C)c1ccc(O)c(/C=c2\[nH]c(=O)/c(=C/c3ccccc3)[nH]c2=O)c1.O=C(O)C(F)(F)F | > 2000 | 14% | 
50 | CC(C)(C)c1[nH]cnc1/C=c1\[nH]c(=O)/c(=C/c2cc(Br)cs2)[nH]c1=O.O=C(O)C(F)(F)F | 1710 | 86% | 
51 | CC(C)(C)c1ocnc1/C=c1\[nH]c(=O)/c(=C/c2cn(S(=O)(=O)c3ccccc3)c3ccccc23)[nH]c1=O | > 6230 |  | 
52 | Cc1cccc(/C=c2\[nH]c(=O)/c(=C/c3nc[nH]c3C(C)(C)C)[nH]c2=O)n1.O=C(O)C(F)(F)F.O=C(O)C(F)(F)F | > 2000 | 37% | 
